Source: PubChem BioAssay (NCI)
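How tested: cells in 96-well plates exposed to compound for 48 hours at five concentrations. TGI: concentration producing complete growth inhibition.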

Legend:
Experiment in all cases: DTP human tumour cell line panel, 48 h
[1] = test system: TK-10 renal
[2] = test system: HT29 colon
[3] = test system: OVCAR-3 ovarian
[4] = test system: ACHN renal
[5] = test system: UACC-62 melanoma
[6] = test system: CCRF-CEM leukemia
[7] = test system: SK-MEL-28 melanoma
[8] = test system: A549 NSCLC
[9] = test system: A498 renal
[10] = test system: SF-295 CNS
[11] = test system: DMS 114 small cell lung
[12] = test system: RXF 393 renal
[13] = test system: MOLT-4 leukemia
[14] = test system: LOX IMVI melanoma
[15] = test system: LXFL 529 NSCLC
[16] = test system: U251 CNS
[17] = test system: EKVX NSCLC
[18] = test system: K-562 leukemia
[19] = test system: SNB-78 CNS
[20] = test system: SF-268 CNS
[21] = test system: HOP-62 NSCLC
[22] = test system: SK-MEL-2 melanoma
[23] = test system: UO-31 renal
[24] = test system: SF-539 CNS
[25] = test system: M14 melanoma
[26] = test system: CAKI-1 renal
[27] = test system: HL-60(TB) leukemia
[28] = test system: NCI-H460 lung
[29] = test system: SW-620 colon
[30] = test system: NCI-H23 lung
[31] = test system: COLO 205 colon
[32] = test system: HOP-92 NSCLC
[33] = test system: M19-MEL melanoma
[34] = test system: 786-0 renal
[35] = test system: MALME-3M melanoma
[36] = test system: RPMI-8226 leukemia
[37] = test system: SK-MEL-5 melanoma
[38] = test system: DLD-1 colon
[39] = test system: HCT-116 colon
[40] = test system: SK-OV-3 ovarian
[41] = test system: OVCAR-8 ovarian
[42] = test system: NCI-H226 lung
[43] = test system: OVCAR-5 ovarian
[44] = test system: SNB-75 CNS
[45] = test system: UACC-257 melanoma
[46] = test system: KM20L2 colon
[47] = test system: KM12 colon
[48] = test system: HCT-15 colon
[49] = test system: HCC-2998 colon
[50] = test system: IGROV1 ovarian
[51] = test system: SN12C renal
[52] = test system: OVCAR-4 ovarian
[53] = test system: SR leukemia
[54] = test system: SNB-19 CNS
[55] = test system: NCI-H522 lung
[56] = test system: DU-145 prostate
[57] = test system: PC-3 prostate
[58] = test system: MDA-MB-231 breast
[59] = test system: DMS 273 small cell lung
[60] = test system: T-47D breast
[61] = test system: BT-549 breast
[62] = test system: HOP-18 NSCLC
[63] = test system: HS 578T breast
[64] = test system: MDA-MB-435
[65] = test system: MCF7 breast

## CN(C)c1ccc(/C=C(/C(=O)O)c2csc(-c3nc(/C(=C\c4ccc(N(C)C)cc4)C(=O)O)cs3)n2)cc1
[1]
  TGI: > 100 µM
[2]
  TGI: > 100 µM
[3]
  TGI: > 100 µM
[4]
  TGI: > 100 µM
[5]
  TGI: > 100 µM
[6]
  TGI: > 100 µM
[7]
  TGI: > 100 µM
[8]
  TGI: > 100 µM
[9]
  TGI: > 100 µM
[10]
  TGI: > 100 µM
[11]
  TGI: > 100 µM
[12]
  TGI: > 100 µM
[13]
  TGI: > 100 µM
[14]
  TGI: > 100 µM
[15]
  TGI: > 100 µM
[16]
  TGI: > 100 µM
[17]
  TGI: > 100 µM
[18]
  TGI: > 100 µM
[19]
  TGI: > 100 µM
[20]
  TGI: > 100 µM
[21]
  TGI: > 100 µM
[22]
  TGI: > 100 µM
[23]
  TGI: > 100 µM
[24]
  TGI: > 100 µM
[25]
  TGI: > 100 µM
[26]
  TGI: > 100 µM
[27]
  TGI: > 100 µM
[28]
  TGI: > 100 µM
[29]
  TGI: > 100 µM
[30]
  TGI: > 100 µM
[31]
  TGI: > 100 µM
[32]
  TGI: > 100 µM
[33]
  TGI: > 100 µM
[34]
  TGI: > 100 µM
[35]
  TGI: > 100 µM
[36]
  TGI: > 100 µM
[37]
  TGI: > 100 µM
[38]
  TGI: > 100 µM
[39]
  TGI: > 100 µM
[40]
  TGI: > 100 µM
[41]
  TGI: > 100 µM
[42]
  TGI: > 100 µM
[43]
  TGI: > 100 µM
[44]
  TGI: > 100 µM
[45]
  TGI: > 100 µM
[46]
  TGI: > 100 µM
[47]
  TGI: > 100 µM
[48]
  TGI: > 100 µM
[49]
  TGI: > 100 µM
[50]
  TGI: > 100 µM
[51]
  TGI: > 100 µM

## COc1nc(C(=O)O)c(Cl)c(OC)c1Cl
[52]
  TGI: > 100 µM
[1]
  TGI: > 100 µM
[2]
  TGI: > 100 µM
[3]
  TGI: > 100 µM
[4]
  TGI: > 100 µM
[5]
  TGI: > 100 µM
[6]
  TGI: > 100 µM
[7]
  TGI: > 100 µM
[8]
  TGI: > 100 µM
[9]
  TGI: > 100 µM
[10]
  TGI: > 100 µM
[11]
  TGI: > 100 µM
[12]
  TGI: > 100 µM
[13]
  TGI: > 100 µM
[17]
  TGI: > 100 µM
[20]
  TGI: > 100 µM
[21]
  TGI: > 100 µM
[22]
  TGI: > 100 µM
[23]
  TGI: > 100 µM
[24]
  TGI: > 100 µM
[25]
  TGI: > 100 µM
[26]
  TGI: > 100 µM
[27]
  TGI: > 100 µM
[28]
  TGI: > 100 µM
[53]
  TGI: > 100 µM
[29]
  TGI: > 100 µM
[30]
  TGI: > 100 µM
[31]
  TGI: > 100 µM
[32]
  TGI: > 100 µM
[33]
  TGI: > 100 µM
[34]
  TGI: > 100 µM
[54]
  TGI: > 100 µM
[35]
  TGI: > 100 µM
[36]
  TGI: > 100 µM
[37]
  TGI: > 100 µM
[38]
  TGI: > 100 µM
[39]
  TGI: > 100 µM
[40]
  TGI: > 100 µM
[41]
  TGI: > 100 µM
[43]
  TGI: > 100 µM
[45]
  TGI: > 100 µM
[46]
  TGI: > 100 µM
[47]
  TGI: > 100 µM
[49]
  TGI: > 100 µM
[55]
  TGI: > 100 µM
[50]
  TGI: > 100 µM
[51]
  TGI: > 100 µM

## Cc1cc(=O)[nH]c(NN2C(Cl)C(=O)C2c2ccc(O)cc2)n1 (stereo not given)
[52]
  TGI: 19 µM
[1]
  TGI: 31.7 µM
[56]
  TGI: 22.8 µM
[2]
  TGI: 35.1 µM
[3]
  TGI: 18.9 µM
[57]
  TGI: 26.8 µM
[4]
  TGI: 22 µM
[5]
  TGI: 18.7 µM
[7]
  TGI: 24.1 µM
[8]
  TGI: 31.2 µM
[9]
  TGI: 21.5 µM
[58]
  TGI: 30 µM
[10]
  TGI: 21.4 µM
[12]
  TGI: 17.2 µM
[13]
  TGI: > 79.2 µM
[14]
  TGI: 7.27 µM
[15]
  TGI: 22.2 µM
[16]
  TGI: 18.4 µM
[17]
  TGI: 18.3 µM
[19]
  TGI: 24.2 µM
[20]
  TGI: 32.3 µM
[21]
  TGI: 19 µM
[22]
  TGI: 29.5 µM
[23]
  TGI: 22.4 µM
[59]
  TGI: 18.1 µM
[24]
  TGI: 24.3 µM
[25]
  TGI: 24.6 µM
[26]
  TGI: 20.4 µM
[27]
  TGI: 7.69 µM
[28]
  TGI: 18.1 µM
[53]
  TGI: > 25.6 µM
[29]
  TGI: 28.9 µM
[31]
  TGI: 40.7 µM
[32]
  TGI: 29.4 µM
[33]
  TGI: 23.1 µM
[60]
  TGI: 32.2 µM
[34]
  TGI: 18.2 µM
[54]
  TGI: 23.2 µM
[35]
  TGI: 30.7 µM
[36]
  TGI: 5.59 µM
[61]
  TGI: 27.1 µM
[62]
  TGI: 27.8 µM
[37]
  TGI: 21.5 µM
[63]
  TGI: 51.7 µM
[64]
  TGI: 20.5 µM
[39]
  TGI: 14.3 µM
[65]
  TGI: 27.4 µM
[40]
  TGI: 23.4 µM
[41]
  TGI: 28.6 µM
[42]
  TGI: 32.6 µM
[43]
  TGI: 35.2 µM
[44]
  TGI: 7.92 µM
[45]
  TGI: 26.1 µM
[46]
  TGI: 46.5 µM
[47]
  TGI: 25 µM
[48]
  TGI: 15.4 µM
[49]
  TGI: 23.3 µM
[55]
  TGI: 32.8 µM
[50]
  TGI: 21.7 µM
[51]
  TGI: 23.5 µM

## CC1(C)CC2(S(=O)(=O)c3ccccc3)ON1CC2S(=O)(=O)c1ccccc1 (stereo not given)
[52]
  TGI: > 100 µM
[1]
  TGI: > 100 µM
[2]
  TGI: > 100 µM
[3]
  TGI: > 100 µM
[4]
  TGI: > 100 µM
[5]
  TGI: > 100 µM
[6]
  TGI: 89.9 µM
[7]
  TGI: > 100 µM
[8]
  TGI: > 100 µM
[10]
  TGI: > 100 µM
[11]
  TGI: > 100 µM
[12]
  TGI: > 100 µM
[13]
  TGI: > 100 µM
[14]
  TGI: > 100 µM
[15]
  TGI: > 100 µM
[16]
  TGI: > 100 µM
[17]
  TGI: > 100 µM
[18]
  TGI: > 100 µM
[20]
  TGI: > 100 µM
[21]
  TGI: > 100 µM
[22]
  TGI: > 100 µM
[23]
  TGI: > 100 µM
[59]
  TGI: > 100 µM
[24]
  TGI: > 100 µM
[25]
  TGI: > 100 µM
[26]
  TGI: > 100 µM
[27]
  TGI: 78.5 µM
[28]
  TGI: > 100 µM
[53]
  TGI: > 100 µM
[29]
  TGI: > 100 µM
[30]
  TGI: > 100 µM
[31]
  TGI: > 100 µM
[33]
  TGI: > 100 µM
[34]
  TGI: > 100 µM
[54]
  TGI: > 100 µM
[35]
  TGI: > 100 µM
[36]
  TGI: > 100 µM
[38]
  TGI: > 100 µM
[39]
  TGI: > 100 µM
[40]
  TGI: > 100 µM
[41]
  TGI: > 100 µM
[42]
  TGI: > 100 µM
[43]
  TGI: > 100 µM
[44]
  TGI: > 100 µM
[45]
  TGI: > 100 µM
[46]
  TGI: > 100 µM
[47]
  TGI: > 100 µM
[48]
  TGI: > 100 µM
[49]
  TGI: > 100 µM
[55]
  TGI: > 100 µM
[50]
  TGI: > 100 µM
[51]
  TGI: > 100 µM
